Assay results from patent US20150105252A1, “SUBSTITUTED PYRAZOLES AS HERBICIDES” (E I DU PONT DE NEMOURS AND COMPANY, priority 2013, published 2015).

Key:
[1] = tested on: crabgrass, large; assay: Test C preemergence; format: in vivo, Digitaria sanguinalis; details: preemergence; for Plant response rating, Crabgrass, Large: 125 g ai/ha, scale 0 to 100, 0 = no effect, 100 = complete control
In short: (§1)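 Postemergence values come from plants sprayed at the 1- to 4-leaf stage (2–18 cm) in peat moss–vermiculite medium; preemergence values from seeds treated in a loam–sand blend. Both evaluated visually against controls after 13–15 greenhouse days, scale 0–100.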

[2] = tested on: chickweed; assay: Test C postemergence; format: in vivo, Stellaria media; details: for Plant response rating (scale of 0 to 100 where 0 is no effect and 100 is complete control), Chickweed: Postemergence, 31 g ai/ha, visually evaluated after 13 to 15 days; for Chickweed plant response rating / Plant response rating, Chickweed: postemergence; for Chickweed plant response rating: 62 g ai/ha, scale 0 to 100
In short: as §1

[3] = tested on: barnyardgrass; assay: Test C preemergence; format: in vivo, Echinochloa crus-galli; details: preemergence; for Plant response rating, Barnyardgrass: 125 g ai/ha, scale 0 to 100, 0 = no effect, 100 = complete control
In short: as §1

[4] = tested on: barnyardgrass; assay: Test A postemergence; format: in vivo, Echinochloa crus-galli
In short: (§2)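 Visual injury ratings, 0 = no effect to 100 = complete control, taken about 10 days after treatment against untreated controls. Test chemicals, in a non-phytotoxic surfactant-containing solvent, were sprayed onto soil preemergence or onto one- to two-leaf plants (2–10 cm) postemergence, in loam–sand soil under greenhouse conditions.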

[5] = tested on: ducksalad; assay: Test B flood; format: in vivo, Heteranthera limosa; details: 250 g ai/ha, visual rating on 0 to 100 scale (0 no effect, 100 complete control), 13 to 15 days
In short: (§3)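 Response scored visually, 0–100 relative to controls, 13–15 days after the compound was applied into paddy water; plants were at the 2-leaf stage in pots kept flooded to 3 cm.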

[6] = tested on: oilseed rape; assay: Test C preemergence; format: in vivo, Brassica napus; details: preemergence; for Plant response rating, Oilseed Rape: 125 g ai/ha, scale 0 to 100, 0 = no effect, 100 = complete control
In short: as §1

[7] = tested on: rice; assay: Test B flood; format: in vivo, Oryza sativa; details: 250 g ai/ha, visual rating on 0 to 100 scale (0 no effect, 100 complete control), 13 to 15 days
In short: as §3

[8] = tested on: crabgrass, large; assay: Test A preemergence; format: in vivo, Digitaria sanguinalis; details: preemergence; for Crabgrass, Large plant response rating (0 to 100 scale): 125 g ai/ha, visual injury approx. 10 days after treatment; for Crabgrass, Large plant response rating: 500 g ai/ha, visual injury after approx. 10 days, 0 to 100 scale (0 no effect, 100 complete control)
In short: as §2

[9] = tested on: nutsedge, yellow; assay: Test C postemergence; format: in vivo, Cyperus esculentus; details: for Plant response rating (scale of 0 to 100 where 0 is no effect and 100 is complete control), Nutsedge, Yellow: Postemergence, 31 g ai/ha, visually evaluated after 13 to 15 days; for Nutsedge, Yellow plant response rating / Plant response rating, Nutsedge, Yellow: postemergence; for Nutsedge, Yellow plant response rating: 62 g ai/ha, scale 0 to 100
In short: as §1

[10] = tested on: morningglory; assay: Test C preemergence; format: in vivo, Ipomoea coccinea; details: preemergence; for Plant response rating, Morningglory: 125 g ai/ha, scale 0 to 100, 0 = no effect, 100 = complete control
In short: as §1

[11] = tested on: morningglory; assay: Test A postemergence; format: in vivo, Ipomoea spp.
In short: as §2

[12] = tested on: velvetleaf; assay: Test C preemergence; format: in vivo, Abutilon theophrasti; details: preemergence; for Plant response rating, Velvetleaf: 125 g ai/ha, scale 0 to 100, 0 = no effect, 100 = complete control
In short: as §1

[13] = tested on: nutsedge, yellow; assay: Test C preemergence; format: in vivo, Cyperus esculentus; details: preemergence; for Plant response rating, Nutsedge, Yellow: 125 g ai/ha, scale 0 to 100, 0 = no effect, 100 = complete control
In short: as §1

[14] = 31 g ai/ha, visual rating, scale 0 to 100 (0 no effect, 100 complete control), 13 to 15 days
[15] = 62 g ai/ha, scale 0 to 100 (0 no effect, 100 complete control), 13 to 15 days
[16] = 250 g ai/ha, scale 0 to 100, 0 is no effect, 100 is complete control
[17] = 250 g ai/ha, scale 0 to 100 (0 no effect, 100 complete control)
[18] = 125 g ai/ha, scale 0 to 100, 0 no effect, 100 complete control
[19] = Postemergence, 500 g ai/ha, 0 to 100 scale (0 no effect, 100 complete control)
[20] = postemergence, 125 g ai/ha, about 10 days, visual rating on 0 to 100 scale (0 no effect, 100 complete control)
[21] = Postemergence, 125 g ai/ha, 0 to 100 scale, 0 no effect, 100 complete control

SMILES | Crabgrass, Large plant response rating [1, 14] | Crabgrass, Large plant response rating [1, 15] | Plant response rating, Crabgrass, Large ([1]; 13 to 15 days) | Crabgrass, Large plant response rating [1, 16] | Plant response rating (scale of 0 to 100 where 0 is no effect and 100 is complete control), Chickweed [2] | Chickweed plant response rating [2] | Plant response rating, Chickweed [2, 17] | Plant response rating, Chickweed [2, 18] | Barnyardgrass plant response rating [3, 14] | Barnyardgrass plant response rating [3, 15] | Plant response rating, Barnyardgrass ([3]; 13 to 15 days) | Barnyardgrass plant response rating [3, 16] | Barnyardgrass plant response rating [4, 19] | Barnyardgrass plant response rating [4, 20] | Plant response rating, Ducksalad [5] | Oilseed Rape plant response rating [6, 14] | Oilseed Rape plant response rating [6, 15] | Plant response rating, Oilseed Rape ([6]; 13 to 15 days) | Oilseed Rape plant response rating [6, 16] | Plant response rating, Rice [7] | other results
CCNC(=O)c1cc(CC)n(Cc2cc(C(F)(F)F)nn2C)n1 [Compound 154] | 100 | 100 | 100 | 100 | 60 | 70 | 90 | 60 | 55 | 95 | 100 | 100 | 100 | 100 | 90 | 85 | 95 | 95 | 95 | 0 | Crabgrass, Large plant response rating (0 to 100 scale) [8]: 100; Crabgrass, Large plant response rating [8]: 100; Plant response rating (scale of 0 to 100 where 0 is no effect and 100 is complete control), Nutsedge, Yellow [9]: 0; Nutsedge, Yellow plant response rating [9]: 0; Plant response rating, Nutsedge, Yellow [9, 17]: 5; Plant response rating, Nutsedge, Yellow [9, 18]: 5; Morningglory plant response rating [10, 14]: 35; Morningglory plant response rating [10, 15]: 90; Plant response rating, Morningglory ([10]; 13 to 15 days): 100; Morningglory plant response rating [10, 16]: 100; Morningglory plant response rating [11, 19]: 100; Morningglory plant response rating [11, 20]: 100; Velvetleaf plant response rating [12, 14]: 10; Velvetleaf plant response rating [12, 15]: 40; Plant response rating, Velvetleaf ([12]; 13 to 15 days): 90; Velvetleaf plant response rating [12, 16]: 100; Nutsedge, Yellow plant response rating [13, 14]: 0; Nutsedge, Yellow plant response rating [13, 15]: 15; Plant response rating, Nutsedge, Yellow ([13]; 13 to 15 days): 35; Nutsedge, Yellow plant response rating [13, 16]: 60
CCCNC(=O)c1cc(CCF)n(Cc2ccnc(C(F)(F)F)c2)n1 [Compound 177] | 100 | 100 | 100 | 100 | 60 | 75 | 90 | 70 | 65 | 100 | 100 | 100 | 100 | 100 | 95 | 70 | 60 | 90 | 95 | 15 | Crabgrass, Large plant response rating (0 to 100 scale) [8]: 100; Crabgrass, Large plant response rating [8]: 100; Plant response rating (scale of 0 to 100 where 0 is no effect and 100 is complete control), Nutsedge, Yellow [9]: 10; Nutsedge, Yellow plant response rating [9]: 5; Plant response rating, Nutsedge, Yellow [9, 17]: 15; Plant response rating, Nutsedge, Yellow [9, 18]: 5; Morningglory plant response rating [10, 14]: 25; Morningglory plant response rating [10, 15]: 95; Plant response rating, Morningglory ([10]; 13 to 15 days): 100; Morningglory plant response rating [10, 16]: 100; Morningglory plant response rating [11, 19]: 100; Morningglory plant response rating [11, 20]: 100; Velvetleaf plant response rating [12, 14]: 0; Velvetleaf plant response rating [12, 15]: 35; Plant response rating, Velvetleaf ([12]; 13 to 15 days): 50; Velvetleaf plant response rating [12, 16]: 100; Nutsedge, Yellow plant response rating [13, 14]: 5; Nutsedge, Yellow plant response rating [13, 15]: 60; Plant response rating, Nutsedge, Yellow ([13]; 13 to 15 days): 80; Nutsedge, Yellow plant response rating [13, 16]: 95
CCCc1cc(C(=O)NC(C)C)nn1Cc1ccnc(C(F)(F)F)c1 [Compound 186] | 100 | 100 | 100 | 100 | 70 | 80 | 100 | 85 | 100 | 100 | 100 | 100 | 90 | 90 | 80 | 100 | 100 | 100 | 95 | 75 | Crabgrass, Large plant response rating (0 to 100 scale) [8]: 100; Crabgrass, Large plant response rating [8]: 100; Plant response rating (scale of 0 to 100 where 0 is no effect and 100 is complete control), Nutsedge, Yellow [9]: 5; Nutsedge, Yellow plant response rating [9]: 5; Plant response rating, Nutsedge, Yellow [9, 17]: 15; Plant response rating, Nutsedge, Yellow [9, 18]: 5; Morningglory plant response rating [10, 14]: 98; Morningglory plant response rating [10, 15]: 70; Plant response rating, Morningglory ([10]; 13 to 15 days): 100; Morningglory plant response rating [10, 16]: 100; Morningglory plant response rating [11, 21]: 0; Morningglory plant response rating [11, 19]: 100; Velvetleaf plant response rating [12, 14]: 100; Velvetleaf plant response rating [12, 15]: 100; Plant response rating, Velvetleaf ([12]; 13 to 15 days): 100; Velvetleaf plant response rating [12, 16]: 100; Nutsedge, Yellow plant response rating [13, 14]: 10; Nutsedge, Yellow plant response rating [13, 15]: 60; Plant response rating, Nutsedge, Yellow ([13]; 13 to 15 days): 85; Nutsedge, Yellow plant response rating [13, 16]: 98
CCCNC(=O)c1cc(OCC)n(Cc2ccnc(C(F)(F)F)c2)n1 [Compound 187] | 100 | 100 | 100 | 100 | 98 | 70 | 85 | 80 | 95 | 100 | 100 | 100 | 90 | 90 | 90 | 50 | 90 | 95 | 100 | 45 | Crabgrass, Large plant response rating (0 to 100 scale) [8]: 100; Crabgrass, Large plant response rating [8]: 100; Plant response rating (scale of 0 to 100 where 0 is no effect and 100 is complete control), Nutsedge, Yellow [9]: 5; Nutsedge, Yellow plant response rating [9]: 5; Plant response rating, Nutsedge, Yellow [9, 17]: 10; Plant response rating, Nutsedge, Yellow [9, 18]: 5; Morningglory plant response rating [10, 14]: 85; Morningglory plant response rating [10, 15]: 100; Plant response rating, Morningglory ([10]; 13 to 15 days): 100; Morningglory plant response rating [10, 16]: 100; Morningglory plant response rating [11, 21]: 40; Morningglory plant response rating [11, 19]: 100; Velvetleaf plant response rating [12, 14]: 95; Velvetleaf plant response rating [12, 15]: 100; Plant response rating, Velvetleaf ([12]; 13 to 15 days): 100; Velvetleaf plant response rating [12, 16]: 100; Nutsedge, Yellow plant response rating [13, 14]: 25; Nutsedge, Yellow plant response rating [13, 15]: 60; Plant response rating, Nutsedge, Yellow ([13]; 13 to 15 days): 85; Nutsedge, Yellow plant response rating [13, 16]: 98
